Consider 31 molecules from patent US20110178062A1, “INDOLE AND BENZOTHIOPHENE COMPOUNDS AS MODULATORS OF THE HISTAMINE H3 RECEPTOR” (priority 2007, published 2011).

The target of test [1] is T1, cloned human H3 receptors, stably expressed in SK-N-MC cells (Homo sapiens, UniProt Q9Y5N1).
T1 construct: expressed in transfected cells; host or cells: SK-N-MC cells
In words: H3 Receptor Binding (Human). The settings on record: average of the results obtained. As for the experimental part:
Binding of compounds to the cloned human H3 receptors, stably expressed in SK-N-MC cells, was performed as described by Barbier, A. J. et al. (Br. J. Pharmacol. 2004, 143(5), 649-661). Data for compounds tested in this assay are presented in Table 1 as an average of the results obtained.

A further test has as its target Rat H3 (Rattus norvegicus, UniProt Q9QYN8). The test can be described thus: H3 Receptor Binding (Rat), rat brain membranes, N-[3H]-α-methylhistamine. The note with it: rat brain without cerebellum; 0.8 nM N-[3H]-α-methylhistamine; average of results. Here is the method:
A rat brain without cerebellum (Zivic Laboratories Inc., Pittsburgh, Pa.) was homogenized in 50 mM Tris-HCl/5 mM EDTA and centrifuged at 1,000 rpm for 5 min. The supernatant was removed and recentrifuged at 15,000 rpm for 30 min. Pellets were rehomogenized in 50 mM Tris/5 mM EDTA (pH 7.4). Membranes were incubated with 0.8 nM N—[^3H]-α-methylhistamine plus/minus test compounds for 60 min at 25° C. and harvested by rapid filtration over GF/C glass fiber filters (pretreated with 0.3% polyethylenimine) followed by four washes with buffer. Nonspecific binding was defined in the presence of 100 μM histamine. Inhibitory concentration (responsible for 50% inhibition of maximal effect, IC50) values were determined by a single site curve-fitting program (GraphPad, San Diego, Calif.) and converted to Ki values based on a N—[^3H]-α-methylhistamine dissociation constant (Kd) of 0.8 nM. Data for compounds tested in this assay are presented in Table 2 as an average of the results obtained.

In the next test the target is T2, human H3 receptor (Homo sapiens, UniProt Q9Y5N1).
T2 construct: expressed in transfected cells; host or cells: SK-N-MC cells
T2 sequence (Q9Y5N1 whole entry): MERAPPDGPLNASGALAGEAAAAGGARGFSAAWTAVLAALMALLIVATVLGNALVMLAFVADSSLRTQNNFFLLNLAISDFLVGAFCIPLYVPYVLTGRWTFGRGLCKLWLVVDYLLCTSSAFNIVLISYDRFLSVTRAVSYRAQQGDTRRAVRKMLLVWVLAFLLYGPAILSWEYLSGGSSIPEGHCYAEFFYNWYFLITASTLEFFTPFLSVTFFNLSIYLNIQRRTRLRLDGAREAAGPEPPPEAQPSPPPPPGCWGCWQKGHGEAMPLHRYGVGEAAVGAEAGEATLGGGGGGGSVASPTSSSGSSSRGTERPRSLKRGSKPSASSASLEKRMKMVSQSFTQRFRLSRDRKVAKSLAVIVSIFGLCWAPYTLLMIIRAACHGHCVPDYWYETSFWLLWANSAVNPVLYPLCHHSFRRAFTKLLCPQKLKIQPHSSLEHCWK
The test can be described thus: Cyclic AMP Accumulation, SK-N-MC reporter cells (human H3). The test is classed as cell-based. The settings on record: SK-N-MC cells expressing reporter construct and human H3 receptor; read-out: Human pA2 (converted). The source says: Sublines of SK-N-MC cells were created that expressed a reporter construct and either the human or rat H3 receptor. The pA2 values were obtained as described by Barbier et al. (2004). Data for compounds tested in these assays are presented in Table 3, as an average of the results obtained (NT=not tested).

T1 sequence (Q9Y5N1 whole entry): as above
Rat H3, sequence (Q9QYN8 1-397 isoform Q9QYN8-3): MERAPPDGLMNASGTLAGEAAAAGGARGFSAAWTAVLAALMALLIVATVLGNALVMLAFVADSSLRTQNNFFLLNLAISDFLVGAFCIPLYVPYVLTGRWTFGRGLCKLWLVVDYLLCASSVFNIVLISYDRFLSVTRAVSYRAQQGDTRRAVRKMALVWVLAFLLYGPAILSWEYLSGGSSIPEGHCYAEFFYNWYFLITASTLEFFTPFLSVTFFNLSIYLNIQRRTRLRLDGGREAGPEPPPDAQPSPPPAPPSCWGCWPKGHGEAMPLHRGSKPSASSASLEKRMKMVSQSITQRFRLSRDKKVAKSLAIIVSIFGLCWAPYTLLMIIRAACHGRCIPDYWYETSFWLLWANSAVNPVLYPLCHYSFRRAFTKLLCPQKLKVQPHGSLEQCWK

As to `CC(C)N1CCN(C(=O)c2ccc3c(CN4CCOCC4)c[nH]c3c2)CC1` [Example 4, (4-Isopropyl-piperazin-1-yl)-(3-morpholin-4-ylmethyl-1H-indol-6-yl)-methanone], the inhibitory constant (Ki) (in general, the equilibrium dissociation constant of an inhibitor or competing ligand from its target) in test [1] came to 1 nM; on Rat H3 it was 14 nM. The Kb on human H3 receptor was 0.234 nM.

For `CC(C)N1CCN(C(=O)c2ccc3c(CN4CCOCC4)cn(C)c3c2)CC1` [Example 1, (4-Isopropyl-piperazin-1-yl)-(1-methyl-3-morpholin-4-ylmethyl-1H-indol-6-yl)-methanone], the figures for the Ki (in test [1]; at Rat H3) were 2 nM and 98 nM, respectively. On human H3 receptor, the Kb is 3.72 nM.

In turn, `Cn1cc(CN2CCOCC2)c2ccc(C(=O)N3CCN(C4CCC4)CC3)cc21` [Example 3, (4-Cyclobutyl-piperazin-1-yl)-(1-methyl-3-morpholin-4-ylmethyl-1H-indol-6-yl)-methanone] displayed a Ki in test [1] of 1 nM. For the same molecule, the Kb at human H3 receptor was 0.501 nM.

Turning to `O=C(c1ccc2c(CN3CCOCC3)c[nH]c2c1)N1CCN(C2CC2)CC1` [Example 5, (4-Cyclopropyl-piperazin-1-yl)-(3-morpholin-4-ylmethyl-1H-indol-6-yl)-methanone], the Ki in test [1] stood at 1 nM; at Rat H3, 28 nM. Besides, the Kb on human H3 receptor is 0.537 nM.

`CC(C)N1CCN(C(=O)c2ccc3scc(CN4CCCCC4)c3c2)CC1` [Example 102, (4-Isopropyl-piperazin-1-yl)-(3-piperidin-1-ylmethyl-benzo[b]thiophen-5-yl)-methanone]: the inhibition constant (Ki) in test [1] came to 17 nM; on Rat H3 it was 228 nM.

For `CC(C)N1CCN(C(=O)c2ccc3c(CN4CCC(c5ccccc5)CC4)c[nH]c3c2)CC1` [Example 57, (4-Isopropyl-piperazin-1-yl)-[3-(4-phenyl-piperidin-1-ylmethyl)-1H-indol-6-yl]-methanone], in test [1], the Ki is 1 nM. The Kb at human H3 receptor is 1.17 nM.

For the molecule `O=C(c1cccc2c(CN3CCOCC3)c[nH]c12)N1CCN(C2CCC2)CC1` [Example 21, (4-Cyclobutyl-piperazin-1-yl)-(3-morpholin-4-ylmethyl-1H-indol-7-yl)-methanone], the Ki worked out at 5 nM in test [1] and 19 nM at Rat H3. Also, the Kb at human H3 receptor was 1.1 nM.

In test [1], `CC(C)N1CCN(C(=O)c2cccc3c(CN4CCOCC4)c[nH]c23)CC1` [Example 20, (4-Isopropyl-piperazin-1-yl)-(3-morpholin-4-ylmethyl-1H-indol-7-yl)-methanone] gave a Ki of 10 nM. Also, at human H3 receptor, the Kb is 8.13 nM.

With `O=C(c1ccc2c(CN3CCN(C4CCC4)CC3)c[nH]c2c1)N1CCCCC1` [Example 29, [3-(4-Cyclobutyl-piperazin-1-ylmethyl)-1H-indol-6-yl]-piperidin-1-yl-methanone], the Ki in test [1] was 11 nM; on Rat H3, 438 nM.

Regarding `CC(C)N1CCCN(C(=O)c2ccc3[nH]cc(CN4CCCCC4)c3c2)CC1` [Example 34, (4-Isopropyl-[1,4]diazepan-1-yl)-(3-piperidin-1-ylmethyl-1H-indol-5-yl)-methanone], the Ki in test [1] turned out to be 4 nM; at Rat H3 it was 133 nM.

Turning to `O=C(c1cccc2c(CN3CCCCC3)c[nH]c12)N1CCN(C2CCC2)CC1` [Example 23, (4-Cyclobutyl-piperazin-1-yl)-(3-piperidin-1-ylmethyl-1H-indol-7-yl)-methanone], the inhibitory constant (Ki) in test [1] was 2 nM. Further, the Kb at human H3 receptor is 0.575 nM.

On to `CC(C)N1CCN(C(=O)c2ccc3c(CN4CCCC(CO)C4)c[nH]c3c2)CC1` (centres unmarked) [Example 44, [3-(3-Hydroxymethyl-piperidin-1-ylmethyl)-1H-indol-6-yl]-(4-isopropyl-piperazin-1-yl)-methanone], for which, in test [1], affinity was put at a Ki of 2 nM. Also, the Kb on human H3 receptor is 1.07 nM.

Turning to `CC(C)N1CCN(C(=O)c2ccc3c(CN4CCN(c5ccccc5)CC4)c[nH]c3c2)CC1` [Example 45, (4-Isopropyl-piperazin-1-yl)-[3-(4-phenyl-piperazin-1-ylmethyl)-1H-indol-6-yl]-methanone], the affinity in test [1], expressed as Ki, was 2 nM. The Kb at human H3 receptor was 1.82 nM.

In turn, `CC(C)N1CCN(C(=O)c2ccc3c(CN4CCCC4)c[nH]c3c2)CC1` [Example 58, (4-Isopropyl-piperazin-1-yl)-(3-pyrrolidin-1-ylmethyl-1H-indol-6-yl)-methanone] gave an inhibition constant (Ki) on Rat H3 of 2 nM.

`O=C(c1ccc2c(CN3CCN(C4CCC4)CC3)c[nH]c2c1)N1CCC(Cc2ccccc2)CC1` [Example 107, (4-Benzyl-piperidin-1-yl)-[3-(4-cyclobutyl-piperazin-1-ylmethyl)-1H-indol-6-yl]-methanone]: the inhibitory constant (Ki) in test [1] worked out at 12 nM.

Turning to `CC(C)N1CCN(C(=O)c2ccc3c(CN4CCCCC4)cn(S(C)(=O)=O)c3c2)CC1` [Example 25, (4-Isopropyl-piperazin-1-yl)-(1-methanesulfonyl-3-piperidin-1-ylmethyl-1H-indol-6-yl)-methanone], the affinity in test [1] corresponds to a Ki of 3 nM. The Kb at human H3 receptor is 3.09 nM.

As to `CC(C)N1CCCN(Cc2c[nH]c3cc(C(=O)N4CCC(CO)CC4)ccc23)CC1` [Example 84, (4-Hydroxymethyl-piperidin-1-yl)-[3-(4-isopropyl-[1,4]diazepan-1-ylmethyl)-1H-indol-6-yl]-methanone], the inhibitory constant (Ki) in test [1] was 87 nM.

The molecule `O=C(c1ccc2c(CN3CCCN(C4CCC4)CC3)c[nH]c2c1)N1CCSCC1` [Example 71, [3-(4-Cyclobutyl-[1,4]diazepan-1-ylmethyl)-1H-indol-6-yl]-thiomorpholin-4-yl-methanone] showed a Ki in test [1] of 22 nM.

Molecule `O=C(NCc1cccnc1)c1ccc2c(CN3CCCCC3)c[nH]c2c1` [Example 15, 3-Piperidin-1-ylmethyl-1H-indole-6-carboxylic acid (pyridin-3-ylmethyl)-amide] came in with a Ki in test [1] of 117 nM.

In turn, `O=C(c1ccc2c(CN3CCCN(C4CCC4)CC3)c[nH]c2c1)N1CCC(Cc2ccccc2)CC1` [Example 108, (4-Benzyl-piperidin-1-yl)-[3-(4-cyclobutyl-[1,4]diazepan-1-ylmethyl)-1H-indol-6-yl]-methanone] came in with a Ki in test [1] of 16 nM.

As for `CC(C)N1CCN(Cc2c[nH]c3cc(C(=O)N4CCCCC4)ccc23)CC1` [Example 27, [3-(4-Isopropyl-piperazin-1-ylmethyl)-1H-indol-6-yl]-piperidin-1-yl-methanone], the Ki in test [1] was 28 nM.

Turning to `CN(C)C1CCN(Cc2c[nH]c3cc(C(=O)N4CCCCCC4)ccc23)C1` (centres unmarked) [Example 92, Azepan-1-yl-[3-(3-dimethylamino-pyrrolidin-1-ylmethyl)-1H-indol-6-yl]-methanone], in test [1], the affinity corresponds to a Ki of 15 nM.

In turn, `O=C(c1ccc2c(CN3CCOCC3)c[nH]c2c1)N1CCC(N2CCCC2=O)CC1` [Example 14, 1-[1-(3-Morpholin-4-ylmethyl-1H-indole-6-carbonyl)-piperidin-4-yl]-pyrrolidin-2-one] showed a Ki in test [1] of 609 nM.

In the case of `O=C(c1ccc2c(CN3CCN(C4CCCC4)CC3)c[nH]c2c1)N1CCC(CO)CC1` [Example 80, [3-(4-Cyclopentyl-piperazin-1-ylmethy)l-1H-indol-6-yl]-(4-hydroxymethyl-piperidin-1-yl)-methanone], the Ki in test [1] was found to be 38 nM.

`O=C(c1ccc2c(CN3CCN(C4CCC4)CC3)c[nH]c2c1)N1CCC(c2ccccc2)CC1` [Example 43, [3-(4-Cyclobutyl-piperazine-1-ylmethyl)-1H-indol-6-yl]-(4-phenyl-piperidin-1-yl)-methanone] had a Ki in test [1] of 8 nM.

In the case of `CC(C)N1CCN(C(=O)c2cccc3c(CN4CCCCC4)c[nH]c23)CC1` [Example 22, (4-Isopropyl-piperazin-1-yl)-(3-piperidin-1-ylmethyl-1H-indol-7-yl)-methanone], the Ki in test [1] stood at 32 nM.

Regarding `O=C(c1ccc2c(CN3CCC(N4CCCCC4)CC3)c[nH]c2c1)N1CCC(CO)CC1` [Example 79, (3-[1,4′]Bipiperidinyl-1′-ylmethyl-1H-indol-6-yl)-(4-hydroxymethyl-piperidin-1-yl)-methanone], affinity in test [1] was put at a Ki of 62 nM.

For the molecule `O=C(c1ccc2[nH]cc(CN3CCOCC3)c2c1)N1CCN(C2CCC2)CC1` [Example 40, (4-Cyclobutyl-piperazin-1-yl)-(3-morpholin-4-ylmethyl-1H-indol-5-yl)-methanone], the inhibition constant (Ki) in test [1] worked out at 33 nM.

`CN(C)C1CCN(Cc2c[nH]c3cc(C(=O)N4CCC(Cc5ccccc5)CC4)ccc23)C1` (centres unmarked) [Example 101] showed a Ki in test [1] of 9 nM.

Regarding `CC(C)N1CCN(C(=O)c2ccc3c(CN4CCN(C(=O)c5ccccc5)CC4)c[nH]c3c2)CC1` [Example 63, [3-(4-Benzoyl-piperazin-1-ylmethyl)-1H-indol-6-yl]-(4-isopropyl-piperazin-1-yl)-methanone], in test [1], the affinity, expressed as Ki, was 1 nM.

In test [1], `O=C(c1ccc2c(CN3CCOCC3)c[nH]c2c1)N1CCN(C2CCC2)CC1` [Example 6, (4-Cyclobutyl-piperazin-1-yl)-(3-morpholin-4-ylmethyl-1H-indol-6-yl)-methanone] displayed a Ki of 1 nM. The Kb at human H3 receptor is 0.155 nM.
